From patent US5521160A, “Sulfuric acid esters of sugar alcohols” (Hoffmann-La Roche Inc., priority 1994, dated 1996)
Where a name gives a salt, the structure may show the parent alone. Read-outs that look alike come from different tables or passages of the source.

Legend:
[1] = system: rat smooth muscle cells; experiment: Antiproliferative activity (growth inhibition of rat smooth muscle cells, relative to heparin); type: cell-based; details: 100 μg/ml, 48 hours, relative to heparin 100 μg/ml in same experiment
Experimental: The antiproliferative activity of a substance is expressed as the ri value which is a comparative value to the corresponding activity of heparin and which was determined in cell cultures as follows: rat smooth muscle cells were applied to cell culture plates in a density of 8×10^3 cells/well (medium: DMEM with 10% FCS. Cultivation at 37° C. and 5% CO2). After 4 hours the number of adhered cells was determined and the compounds to be tested (100 μg/ml, dissolved in H2 O) were added. The controls were a) cells to which test compound was not added and b) heparin (100 μg/ml). Subsequently, the cells were incubated for 48 hours and thereafter the cell count was determined once more.
The inhibition i of the cell growth, i.e. the percent reduction in the growth rate of the cells compared to the control, was calculated from these values: [formula] the growth rate μ being calculated as [formula] in which Z is the number of cells.
Finally, ri --the relative inhibitory activity--which expresses the activity of a substance (at 100 μg/ml) in comparison to the activity of heparin in the same concentration in the same experiment, was calculated: [formula]

[2] = biological target: T1, thrombin (Homo sapiens, UniProt P00734); experiment: biochemical; type: biochemical
T1 construct: purchased Roche, Basle (Thrombin Reagent)
Experimental: (§1) The blood coagulation-inhibiting activity was determined as follows:
Inhibition of Thrombin or Factor Xa in the Chromogenic Substrate Assay (Teien. et al., Thrombosis Research 10, 399-410 (1977)): The determination was effected in a Cobas-Bio centrifugal automatic spectrophotometer. The buffer solution used consisted of 50 mM Tris buffer, 180 mM NaCl, 7.5 mM EDTA Na2, 1% PEG 6000 and 0.02% Tween 80, pH 8.4. The test solution consisted of 50 μl of buffer, 30 μl of antithrombin III (1 U/ml, Kabi Diagnostica) and 20 μl of plasma which contained various concentrations of test compounds. 30 μl of sample solution and 20 μl of water with 180 μl of thrombin (1 U/ml, Thrombin Reagent Roche Basle) were added to the test cuvette in the automatic analyzer. After incubation at 37° C. for 240 seconds, 60 μl of S-2238 (H-D-Phe-Pip-Arg-NH.pNA, Kabi Diagnostica, Mondal, Sweden, 0.75 mM in water) and 20 μl of water were added. The liberation of pNA (p-nitroaniline) was followed during 60 seconds at 405 nm in 10 second intervals in comparison to water as the blank.

[3] = biological target: T2, Factor Xa (Bos taurus, UniProt P00743); experiment: Inhibition of Factor Xa in the chromogenic substrate assay (blood coagulation inhibition); type: biochemical
T2 sequence (P00743 41-180 limits assumed): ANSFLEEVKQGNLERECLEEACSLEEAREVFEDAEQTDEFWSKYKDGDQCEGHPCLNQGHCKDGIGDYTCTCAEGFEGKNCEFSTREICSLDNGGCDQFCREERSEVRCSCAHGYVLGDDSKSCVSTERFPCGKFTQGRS
Experimental: as §1
Inhibition of Thrombin or Factor Xa in the Chromogenic Substrate Assay (Teien. et al., Thrombosis Research 10, 399-410 (1977)): The determination was effected in a Cobas-Bio centrifugal automatic spectrophotometer. The buffer solution used consisted of 50 mM Tris buffer, 180 mM NaCl, 7.5 mM EDTA Na2, 1% PEG 6000 and 0.02% Tween 80, pH 8.4. The test solution consisted of 50 μl of buffer, 30 μl of antithrombin III (1 U/ml, Kabi Diagnostica) and 20 μl of plasma which contained various concentrations of test compounds.
The inhibition of Factor Xa was measured in the same manner using a solution of Factor Xa (2.8 nkat/ml) and 2 mM S-2222 (Bz-CO-Ile-Glu-Arg-NH.pNA, Kabi Diagnostica) in water in place of thrombin or S-2238.

[4] = read-out: Anticoagulative Activity IC50 Thrombin; chromogenic substrate S-2238, antithrombin III, plasma, pH 8.4, 37° C.
[5] = read-out: Anticoagulative Activity IC50 Factor Xa; chromogenic substrate S-2222, antithrombin III, plasma
[6] = chromogenic substrate S-2238, antithrombin III, plasma, pH 8.4, 37° C.; read-out: Anticoagulative Activity IC50 Thrombin
[7] = chromogenic substrate S-2222, antithrombin III, plasma; read-out: Anticoagulative Activity IC50 Factor Xa

Row | Compound | Antiproliferative Activity ri (relative inhibitory activity compared with heparin) [1] | IC50 [2, 4] | IC50 [3, 5] | IC50 [2, 6] | IC50 [3, 7] | Anticoagulative Activity IC50 Thrombin ([2]; chromogenic substrate S-2238, antithrombin III, plasma, pH 8.4, 37° C.) | Anticoagulative Activity IC50 Factor Xa ([3]; chromogenic substrate S-2222, antithrombin III, plasma)
1 | O=[N+]([O-])c1cc(S(=O)(=O)c2ccc(NC[C@H](OS(=O)(=O)O)[C@@H](OS(=O)(=O)O)[C@H](OS(=O)(=O)O)[C@@H](COS(=O)(=O)O)OS(=O)(=O)O)c([N+](=O)[O-])c2)ccc1NC[C@H](OS(=O)(=O)O)[C@@H](OS(=O)(=O)O)[C@H](OS(=O)(=O)O)[C@@H](COS(=O)(=O)O)OS(=O)(=O)O [Example 67, N,N'-bis-(2,3,4,5,6-penta-O-sulfo-D-glucit-1-yl)-2,2'-dinitro-4,4'-sulfonyldianiline decasodium salt] | 1.0 | > 682 µM | > 682 µM |  |  |  | 
2 | O=C(Nc1ccc(Cc2ccc(NC(=O)c3ccc(NC[C@H](OS(=O)(=O)O)[C@@H](OS(=O)(=O)O)[C@H](OS(=O)(=O)O)[C@@H](COS(=O)(=O)O)OS(=O)(=O)O)c([N+](=O)[O-])c3)cc2)cc1)c1ccc(NC[C@H](OS(=O)(=O)O)[C@@H](OS(=O)(=O)O)[C@H](OS(=O)(=O)O)[C@@H](COS(=O)(=O)O)OS(=O)(=O)O)c([N+](=O)[O-])c1 [Example 68, 4,4'-bis-(2,3,4,5,6-penta-O-sulfo-D-glucit-1-ylamino)-3,3'-dinitro-N,N'-(4,4'-methylene-diphenyl)-dibenzamide decasodium salt] | 1.1 | > 604 µM | > 604 µM |  |  |  | 
3 | O=C(NC[C@H](OS(=O)(=O)O)[C@@H](OS(=O)(=O)O)[C@H](OS(=O)(=O)O)[C@@H](COS(=O)(=O)O)OS(=O)(=O)O)c1ccc(/C=C/c2ccc(C(=O)NC[C@H](OS(=O)(=O)O)[C@@H](OS(=O)(=O)O)[C@H](OS(=O)(=O)O)[C@@H](COS(=O)(=O)O)OS(=O)(=O)O)cc2Cl)cc1 [Example 85, (E)-2-chlorostilbene-4,4'-dicarboxylic acid bis-(2,3,4,5,6-penta-O-sulfo-D-glucit-1-ylamide) decasodium salt] | 2.1 |  |  | > 699 µM | > 699 µM |  | 
4 | C[C@H](OS(=O)(=O)O)[C@H](OS(=O)(=O)O)[C@@H](OS(=O)(=O)O)[C@H](CNC(=O)c1ccc(/C=C\c2ccc(C(=O)NC[C@H](OS(=O)(=O)O)[C@H](OS(=O)(=O)O)[C@@H](OS(=O)(=O)O)[C@H](C)OS(=O)(=O)O)cc2)cc1)OS(=O)(=O)O [Example 93, (Z)-stilbene-4,4'-dicarboxylic acid bis-(2,3,4,5,6-penta-O-sulfo-L-rhamnit-1-ylamide) octasodium salt] | 1.0 |  |  | > 831 µM | > 831 µM |  | 
5 | heparin [reference compound] | 1.0 |  |  |  |  | 1.9 µg/mL | 2.7 µg/mL
